Test results from US5358959A, “Methods for treating arteriosclerosis” (President and Fellows of Harvard University, priority 1993, dated 1994).
Like-named read-outs stand apart in the source and are kept apart here.

Experiments:
[1] = system: human umbilical vein (HUVEC); assay: Cell growth (flask surface covered by the cell monolayer), human umbilical vein cells; type: cell-based; settings: CLT 10 μM; 48 hs; DME 10% fetal calf serum; control 90±2%
Procedure: (§1) Measurement of cell density in culture plates: Cells of a specific test cell line are seeded at precisely the same low density in culture plates and incubated for approximately 12 hours in DME 10% serum, or other culture medium depending on the cell line tested. […] Alternatively, the cells can be detached from the plate by incubation with trypsin (Sigma, Co.) […] in ethylene diaminotetraacetic acid (ECTA; Sigma, Co); then the cells are counted in an hemocytometer chamber (Fisher, Pittsburgh, Pa.).
(§2) After 48 hs cell growth was assessed by optic miscroscopy calculating the surface of the culture flask covered by the cell monolayer.

[2] = system: Bovine endothelial (BAEC); assay: Cell growth (flask surface covered by the cell monolayer), bovine endothelial cells; type: cell-based; settings: CLT 10 μM; 48 hs; DME 10% calf serum; control 90±2%
Procedure: as §1, §2

Swiss 3T3 cells = assay: DNA synthesis ([3H]thymidine incorporation) in normal fibroblasts; type: cell-based, murine
Procedure: (§3) DNA synthesis assessed by the uptake of [3H]thymidine: Cells are grown in either 48 or 96 wells plates (Costar, Cambridge, Mass.) at 10^4 and 0.8 10^3 cells per well, respectively, and grown in Dubelcco's modified Eagle's medium (DME, Gibco, Grand Island, N.Y.) supplemented with 10% heat-inactivated calf serum; they are kept at 37° C. in 5% CO2. When they reach confluence, usually between 3 and 4 days, the medium is replaced with DME 0.5% serum to make them quiescent, and mitogenesis assays are performed 24 hours later.
(§4) Quiescent cells are exposed to a mitogenic stimulus, such as 10% serum, PDGF (Sigma Co. St. Louis, Mo.), bFGF (Upstate Biotechnologies, Lake Placid, N.Y.), or other appropriate mitogen according to the cell line, and 3 hours 1 later μCi/ml of [3H]thymidine (Dupont, Billerica, Mass.) is added to the wells, and the cells maintained at 37° C./5% CO2 for additional 21 hours. Then the cells are washed 3 times with DME medium and the acid-precipitable radioactivity is extracted with cold 10% TCA (Sigma, Co). After neutralization with 0.3N NaOH (Sigma Co.), aliquots are counted in a Packard Tri-Carb Scintillation counter (Packard Instrument, Downer's Grove, Ill.).
Swiss 3T3 cells (murine fibroblast cell line): Quiescent cells were stimulated with purified growth factors (PDGF and bFGF, […]) and synthesis of DNA was assessed by the incorporation of [3H]thymidine measured 24 hours later.

[3] = biological target: T1, Ca^++ activated K channel (Homo sapiens, UniProt O15554); assay: Inhibition of the Ca++ activated K channel of human erythrocytes (86Rb influx, K efflux); type: cell-based; settings: for order of inhibitory potency, Ca++ activated 86Rb influx / inhibition of Ca++ activated 86Rb influx by other antimycotics and related compounds: human erythrocytes, FIG. 4
T1 construct: endogenous in cells; host or cells: human erythrocytes (washed red blood cells from heparinized blood)
Procedure: Preparation of Human Red Blood Cells: Blood is collected in heparinized tubes and centrifuged in a Sorvall centrifuge (RB 5B, Du Pont Instruments,Newtown, Conn.) at 5° C. for 10 minutes at 3000 g. Plasma and buffy coat are carefully removed and the cells washed four times with a washing solution containing 150 mM choline chloride (Sigma Co), 1 mM MgC12 (Sigma Co), 10 mM Tris-MOPS (Sigma, Ca), pH 7.4 at 4° C.(CWS). An aliquot of cells is then suspended in an approximately equal volume of CWS, and from this original cell suspension hematocrit (Hct) and hemoglobin (optical density at 540 nm) are determined.
Methods to Test Inhibitors of the Ca^++ Activated K: To test inhibitors of the Ca^++ activated K channel, the channel is activated using the calcium ionophore A23187 (Chalbiochem).
By Atomic Absorption Spectrometry: Washed human erythrocyte are suspended at an hematocrit =1% in CWS containing 0.150 mM CaCl2 (Sigma Co) Aliquots of 1 ml are removed at 0, 3 and 5 minutes, layered on top of 0.3 ml of the oil n-butyl phthalate (Fair Lane, N.J.) placed in an Eppendorf microtube (Fisher) and then centrifuged in a micro centrifuge for 20 seconds. At time 5.30 minutes, ionophore A23187 (1 μM final concentration) is added and samples removed and spin down through phthalate at times 6, 7, 8 and 9 minutes. The supernatant on top of the oil layer is removed and its K+ concentration is measured by atomic absorption spectrometry using a Perking Elmer model 5000 spectrometer (Perkin Elmer Corp., Norwolk, Conn.). The efflux of K+ (mmol/1 cells/h) in the absence and presence of the inhibitor is calculated from the slope of the curves relating the K+ concentration in the supernatants (mmol/1 cells) vs. time (min.).
By radioisotopic measurement of ^86 Rb influx. The incubation medium is the same but contains 2 mM KCl and 1 μCi/ml of the radioactive tracer ^86 Rb. After spinning the samples through the phthalate layer, the tubes are rapidly frozen (-80° C.) by immersion in methanol-dry ice, the tips of the tubes containing the packed red cells cut, and counted in a Packard Gamma Counter.

Swiss 3T3 = assay: Proliferative response of quiescent 3T3 cells to conditioned media of MAC treated endothelial cells; type: cell-based, murine; settings: 10 μM CLT; FIG. 5
Procedure: (§5) When endothelial cells (EC) in culture (both BAEC and HUVEC) are treated with terminal complement components to form the MAC (membrane attack complex of complement), they release into the culture medium a potent mitogenic activity that stimulates the proliferation of quiescent cells used as indicators of the mitogens. Both, quiescent Swiss 3T3 and vascular smooth muscle cells are stimulated by the mitogens released form EC in response to the MAC (FIG. 5; Halperin et al. unpublished observation). Moreover, immunoprecipitation with specific antibodies has documented that both PDGF and bFGF released from the EC contribute in approximately equal proportion to the mitogenic activity induced by the MAC (data not shown).

[4] = system: Rat vascular smooth muscle cells; assay: cells; type: cell-based; settings: for inhibition of DNA synthesis by other inhibitors of the Ca++ activated K channel: bFGF-stimulated
Procedure: as §3, §4
Rat vascular smooth muscle cells (murine cell line): Quiescent cells were stimulated with purified growth factors (PDGF and bFGF, […]) and synthesis of DNA was assessed by the incorporation of [3H]thymidine measured 24 hours later.
Cells were stimulated using […] bFGF. […] (FIG. 2)
Other antimycotics were tested for their inhibition of bFGF-stimulated DNA synthesis in rat vascular smooth muscle cells.

[5] = system: vascular smooth muscle cells; assay: Proliferative response of vascular smooth muscle cells to conditioned media of MAC treated endothelial cells; type: cell-based; settings: 10 μM CLT; FIG. 5
Procedure: as §5

endothelial cells = assay: Proliferation of endothelial cells (general statement); type: cell-based; settings: for inhibition of proliferation of endothelial cells: specific inhibitors of the Ca++ activated potassium channel
[6] = system: vascular smooth muscle cells; assay: Proliferation of vascular smooth muscle cells (general statement); type: cell-based; settings: for inhibition of proliferation of vascular smooth muscle cells: specific inhibitors of the Ca++ activated potassium channel
[7] = system: testicular and adrenal synthesis of steroid hormones; settings: cited from earlier work
cell proliferation = assay: Cell proliferation with inhibitors of other transport systems (general statement); type: cell-based; settings: inhibitors of other transport systems activated by mitogens
[8] = 60 μmol A23187/L cell and 100 μM CaCl2

Compound: Clc1ccccc1C(c1ccccc1)(c1ccccc1)n1ccnc1 [CLT, clotrimazole]
- flask surface covered by cells [1]: less than 10%
- flask surface covered by cells [2]: less than 10%
- inhibition of PDGF stimulated DNA synthesis (Swiss 3T3 cells; 10 μM CLT, PDGF, 5 μM, 24 hours): completely inhibited
- inhibition of bFGF stimulated DNA synthesis (Swiss 3T3 cells; 10 μM CLT, bFGF, 5 μM, 24 hours): completely inhibited
- reversibility of the inhibition of DNA synthesis (toxic, non-specific effect) (Swiss 3T3 cells; removing CLT and re-stimulating with the growth factor): reversed by removing CLT
- inhibition of Ca++ activated 86Rb influx [3, 8]: markedly inhibited
- inhibition of Ca++ activated K efflux [3, 8]: markedly inhibited
- order of inhibitory potency, Ca++ activated 86Rb influx [3]: clotrimazole more than miconazole
- inhibition of proliferative response to mitogens released from EC by MAC (Swiss 3T3): completely inhibited
- dose response of inhibition of DNA synthesis [4]: Inhibition was dose dependent
- inhibition of DNA synthesis [4]: complete inhibition
- inhibition of PDGF stimulated DNA synthesis [4]: completely inhibited
- inhibition of bFGF stimulated DNA synthesis [4]: completely inhibited
- order of inhibitory potency, bFGF-stimulated DNA synthesis [4]: CLT more potent than ECZ
- reversibility of the inhibition of DNA synthesis (toxic, non-specific effect) [4]: reversed by removing CLT
- inhibition of bFGF-stimulated DNA synthesis ([4]; 10 µM): inhibited DNA synthesis
- inhibition at 1 µM ([4]; Rattus norvegicus, read-out: inhibition of DNA synthesis): 45%
- inhibition of proliferative response to mitogens released from EC by MAC [5]: completely inhibited

Compound: Clc1ccc(COC(Cn2ccnc2)c2ccc(Cl)cc2Cl)cc1 (centres unmarked) [ECZ, econazole]
- order of inhibitory potency, Ca++ activated 86Rb influx [3]: both of these were more than econazole
- order of inhibitory potency, bFGF-stimulated DNA synthesis ([4]; 10 μM, FIG. 3): ECZ more potent than MCZ
- inhibition of bFGF-stimulated DNA synthesis ([4]; antimycotics at 10 μM, FIG. 3): inhibited DNA synthesis

Compound: CC(=O)N1CCN(c2ccc(OCC3COC(Cn4ccnc4)(c4ccc(Cl)cc4Cl)O3)cc2)CC1 (centres unmarked) [Ketoconazole, ketoconazole]
- usefulness for inhibiting endothelial cell proliferation (endothelial cells; ketoconazole, no data given): not useful
- usefulness for inhibiting smooth muscle cell proliferation ([6]; ketoconazole, no data given): not useful
- treatment of prostate cancer ([7]; by blocking steroid synthesis): effective in treating some prostate cancers
- plasma testosterone ([7]; hormonal adjuvant for prostate cancer treatment): reduces plasma testosterone to castration levels
- testicular and adrenal synthesis of steroid hormones, including testosterone ([7]; in high doses): appears to inhibit

Compound: Clc1ccc(COC(Cn2ccnc2)c2ccc(Cl)cc2Cl)c(Cl)c1 (centres unmarked) [MCZ, miconazole]
- order of inhibitory potency, Ca++ activated 86Rb influx [3]: both of these were more than econazole
- order of inhibitory potency, bFGF-stimulated DNA synthesis ([4]; 10 μM, FIG. 3): ECZ more potent than MCZ
- inhibition of bFGF-stimulated DNA synthesis ([4]; antimycotics at 10 μM, FIG. 3): inhibited DNA synthesis

Compound: N=C(N)NC(=O)c1nc(Cl)c(N)nc1N [amiloride]
- inhibition of cell proliferation (cell proliferation): do not inhibit cell proliferation

Compound: OC(Cn1cncn1)(Cn1cncn1)c1ccc(F)cc1F [fluconazole]
- inhibition of Ca++ activated 86Rb influx by other antimycotics and related compounds [3]: no inhibition

Compound: Cc1ncc([N+](=O)[O-])n1CCO [metronidazole]
- inhibition of Ca++ activated 86Rb influx by other antimycotics and related compounds [3]: only marginal

Compound: Cc1ncc([N+](=O)[O-])n1CC(O)CCl (centres unmarked) [ornidazole]
- inhibition of Ca++ activated 86Rb influx by other antimycotics and related compounds [3]: no inhibition

Compound: C[C@@H]1O[C@@H](O[C@H]2C[C@@H](O)[C@]3(CO)[C@H]4[C@H](O)C[C@]5(C)[C@@H](C6=CC(=O)OC6)CC[C@]5(O)[C@@H]4CC[C@]3(O)C2)[C@H](O)[C@H](O)[C@H]1O [ouabain]
- inhibition of cell proliferation (cell proliferation): do not inhibit cell proliferation

Compound: CCS(=O)(=O)CCn1c([N+](=O)[O-])cnc1C [tinidazole]
- inhibition of Ca++ activated 86Rb influx by other antimycotics and related compounds [3]: no inhibition

Compound: Charybdotoxin
- inhibition of proliferation of endothelial cells (endothelial cells): do not inhibit proliferation
- inhibition of proliferation of vascular smooth muscle cells [6]: do not inhibit proliferation
- inhibition of DNA synthesis by other inhibitors of the Ca++ activated K channel ([4]; FIG. 3): failed to inhibit DNA synthesis

Compound: kaliotoxin: specific inhibitors of the Ca^++ activated potassium channel
- inhibition of proliferation of endothelial cells (endothelial cells): do not inhibit proliferation
- inhibition of proliferation of vascular smooth muscle cells [6]: do not inhibit proliferation
- inhibition of DNA synthesis by other inhibitors of the Ca++ activated K channel ([4]; FIG. 3): failed to inhibit DNA synthesis
